How the values were obtained:
Details in all cases: 48 h
[1] = tested on: SEM cells; assay: cell viability relative to DMSO control; higher = less cytotoxic
Procedure, shortened: (§1)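 Cells were incubated for 48 h at 37°C before CellTiter-Glo One luminescence was read. The cells were NOMO1 or SEM (500 cells/well) or P12-Ichikawa (1000 cells/well) leukemia cells, adapted for at least four passages in each medium and seeded in 1536-well plates (5 μl). Dosing used library compounds in DMSO applied by pin over 11 threefold points, 47 μM to 0.79 nM. Viability is the per-plate percentage of DMSO wells, with cell-free wells as background.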

[2] = tested on: NOMO1; assay: AUC of viability dose-response curve (% viability x log10 dose units); higher = less sensitive
Procedure, shortened: (§2)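 Medium-adapted leukemia cells in 1536-well plates, at 500 or 1000 cells/well, were incubated for 48 h at 37°C with library compounds in DMSO at 11 threefold doses from 47 μM to 0.79 nM. CellTiter-Glo One luminescence normalised per plate to DMSO and cell-free wells was fitted with a four-parameter log-logistic model over log10 doses. Area under the curve was integrated from this fit by trapezoidal rule, with curves beyond full viability scaled and failed quality-control curves removed.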

[3] = tested on: P12-Ichikawa; assay: as above
Procedure, shortened: as §2

[4] = tested on: SEM cells; assay: as above
Procedure, shortened: as §2

[5] = tested on: NOMO1; assay: cell viability relative to DMSO control; higher = less cytotoxic
Procedure, shortened: as §1

[6] = tested on: P12-Ichikawa; assay: as above
Procedure, shortened: as §1

CC(C)(O)CCc1ccc(OCc2cc(-c3cccc(OC(F)F)c3)c3ncccc3c2)cc1
[1], HPLM + 10% dialyzed FBS
Details	cell viability [%]
0.000781 µM	96
0.00234 µM	98.7
0.00702 µM	108
0.0211 µM	118
0.0632 µM	113
0.19 µM	126
0.569 µM	115
1.71 µM	127
5.12 µM	137
15.4 µM	119
46.1 µM	134

AUC of viability dose-response curve
Details	[2]	[3]	[4]
HPLM + 10% dialyzed FBS	468	466	435
RPMI 5 mM glucose + 10% FBS	457	457	445
RPMI 5 mM glucose + 10% dialyzed FBS	460	456	469

C=C1/C(=C/C=C2\CCCC3(C)[C@@H]([C@H](C)/C=C/C=C/C(O)(CC)CC)CC[C@@H]23)C[C@@H](O)C[C@@H]1O (some centres undefined)
AUC of viability dose-response curve
Details	[2]	[3]	[4]
HPLM + 10% dialyzed FBS	437	463	463
RPMI 5 mM glucose + 10% FBS	422	451	460
RPMI 5 mM glucose + 10% dialyzed FBS	445	455	448

CC[C@]12CC[C@H]3[C@@H](CCC/4=C/C(=O)CC[C@H]34)[C@@H]1CC[C@@]2(O)C#C
cell viability [%]
Details	[1]	[5]	[6]
HPLM + 10% dialyzed FBS, 0.000781 µM	93.7	100	94.2
HPLM + 10% dialyzed FBS, 0.00234 µM	79.6	92.6	85.6
HPLM + 10% dialyzed FBS, 0.00702 µM	97.7	101	83.8
HPLM + 10% dialyzed FBS, 0.0211 µM	92.4	85.8	87.2
HPLM + 10% dialyzed FBS, 0.0632 µM	103	97.1	104
HPLM + 10% dialyzed FBS, 0.19 µM	83.1	94.4	89.2
HPLM + 10% dialyzed FBS, 0.569 µM	87.8	86.6	68.9
HPLM + 10% dialyzed FBS, 1.71 µM	77.9	72.4	79.3
HPLM + 10% dialyzed FBS, 5.12 µM	83.6	89.2	85.5
HPLM + 10% dialyzed FBS, 15.4 µM	80.9	80.4	82.6
HPLM + 10% dialyzed FBS, 46.1 µM	82.8	69.8	90.5
RPMI 5 mM glucose + 10% FBS, 0.000781 µM	85.7	92.7	86.3
RPMI 5 mM glucose + 10% FBS, 0.00234 µM	102	78.8	88.3
RPMI 5 mM glucose + 10% FBS, 0.00702 µM	102	95	87.2
RPMI 5 mM glucose + 10% FBS, 0.0211 µM	109	88.5	90.4
RPMI 5 mM glucose + 10% FBS, 0.0632 µM	108	81.8	85.1
RPMI 5 mM glucose + 10% FBS, 0.19 µM	85.2	75.1	83.9
RPMI 5 mM glucose + 10% FBS, 0.569 µM	86.9	72.2	75.1
RPMI 5 mM glucose + 10% FBS, 1.71 µM	86.5	76.3	88
RPMI 5 mM glucose + 10% FBS, 5.12 µM	97.9	82.5	86.1
RPMI 5 mM glucose + 10% FBS, 15.4 µM	87.4	73.5	79.6
RPMI 5 mM glucose + 10% FBS, 46.1 µM	96.5	70.8	83.7
RPMI 5 mM glucose + 10% dialyzed FBS, 0.000781 µM	103	82.1	83.3
RPMI 5 mM glucose + 10% dialyzed FBS, 0.00234 µM	90.3	77.5	79.5
RPMI 5 mM glucose + 10% dialyzed FBS, 0.00702 µM	81.9	77.7	88.3
RPMI 5 mM glucose + 10% dialyzed FBS, 0.0211 µM	102	86.6	79.3
RPMI 5 mM glucose + 10% dialyzed FBS, 0.0632 µM	101	75.4	86.7
RPMI 5 mM glucose + 10% dialyzed FBS, 0.19 µM	96.8	77.6	78
RPMI 5 mM glucose + 10% dialyzed FBS, 0.569 µM	101	79.7	81.3
RPMI 5 mM glucose + 10% dialyzed FBS, 1.71 µM	114	78.5	77
RPMI 5 mM glucose + 10% dialyzed FBS, 5.12 µM	94.8	74.1	83.1
RPMI 5 mM glucose + 10% dialyzed FBS, 15.4 µM	111	74.9	73
RPMI 5 mM glucose + 10% dialyzed FBS, 46.1 µM	105	84.5	79.7

AUC of viability dose-response curve
Details	HPLM + 10% dialyzed FBS	RPMI 5 mM glucose + 10% FBS	RPMI 5 mM glucose + 10% dialyzed FBS
[3]	413	405	386
[4]	417	448	452
